Data as given in US20250215029A1 (Recludix Pharma, Inc., priority 2022, published 2025).

What was measured:
[1] = target: T1, Recombinant STAT3 protein (STAT3 (G127-I722)) (Homo sapiens, UniProt P40763); assay: STAT3 Fluorescence Polarization (FP) Assay; type: binding; conditions: STAT3 25 nM, probe 5-FAM-GpYLPQTV-NH2 2 nM, 45-minute incubation; read-out: STAT3 (FP assay IC50)
T1 construct: Recombinant STAT3 protein (STAT3 (G127-I722))
Method in brief: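 In this competition FP format, STAT3 residues G127-I722 (25 nM) and 2 nM 5-FAM-GpYLPQTV-NH2 met test compounds for 45 min at room temperature. IC50 values result from fitting mP signal against log concentration by nonlinear regression.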

[2] = target: T2, Recombinant STAT6 protein (STAT6 (W123-T658)) (Homo sapiens, UniProt P42226); assay: STAT6 Fluorescence Polarization (FP) Assay; type: binding; conditions: STAT6 250 nM, probe 5-FAM-Ap[…]-NH2 2 nM, 45-minute incubation; read-out: STAT6 (FP assay IC50)
T2 construct: Recombinant STAT6 protein (STAT6 (W123-T658))
T2 sequence (P42226 123-658): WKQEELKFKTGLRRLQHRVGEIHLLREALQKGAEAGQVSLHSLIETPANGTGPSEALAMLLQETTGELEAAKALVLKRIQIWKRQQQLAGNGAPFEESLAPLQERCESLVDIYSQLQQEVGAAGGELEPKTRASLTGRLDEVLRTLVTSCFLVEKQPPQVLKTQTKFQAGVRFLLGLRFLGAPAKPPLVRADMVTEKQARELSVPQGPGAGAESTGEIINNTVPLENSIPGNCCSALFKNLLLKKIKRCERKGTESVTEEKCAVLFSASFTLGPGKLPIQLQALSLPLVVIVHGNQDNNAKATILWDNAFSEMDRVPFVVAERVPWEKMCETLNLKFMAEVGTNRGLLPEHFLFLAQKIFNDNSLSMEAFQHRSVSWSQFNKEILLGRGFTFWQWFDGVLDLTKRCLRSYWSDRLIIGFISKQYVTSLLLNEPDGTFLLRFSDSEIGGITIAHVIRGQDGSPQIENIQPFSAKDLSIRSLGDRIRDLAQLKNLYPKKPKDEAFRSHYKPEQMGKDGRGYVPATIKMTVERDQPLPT
Method in brief: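 Recombinant STAT6 (W123-T658) at 250 nM mixed with 2 nM 5-FAM phosphotyrosine peptide probe in HEPES pH 7.4 buffer with DTT, 1% DMSO final, added to serially diluted compounds. FP (mP) read after 45 min at room temperature; IC50 by nonlinear regression vs log concentration.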

T1 sequence (P40763 127-722): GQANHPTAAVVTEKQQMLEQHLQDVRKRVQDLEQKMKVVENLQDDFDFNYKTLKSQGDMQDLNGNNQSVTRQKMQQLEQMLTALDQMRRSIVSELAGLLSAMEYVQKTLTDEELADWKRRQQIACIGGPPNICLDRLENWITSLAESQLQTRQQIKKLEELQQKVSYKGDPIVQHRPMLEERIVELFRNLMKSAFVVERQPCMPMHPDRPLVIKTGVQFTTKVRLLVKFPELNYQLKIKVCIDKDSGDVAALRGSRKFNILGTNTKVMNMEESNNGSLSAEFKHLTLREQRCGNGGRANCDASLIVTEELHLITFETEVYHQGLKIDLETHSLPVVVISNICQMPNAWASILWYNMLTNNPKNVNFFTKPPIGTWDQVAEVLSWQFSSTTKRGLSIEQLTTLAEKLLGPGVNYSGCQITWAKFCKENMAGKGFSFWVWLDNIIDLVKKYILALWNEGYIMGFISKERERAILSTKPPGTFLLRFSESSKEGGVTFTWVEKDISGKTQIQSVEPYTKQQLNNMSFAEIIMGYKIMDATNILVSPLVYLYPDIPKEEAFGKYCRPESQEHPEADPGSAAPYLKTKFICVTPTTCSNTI

SMILES | IC50 [1] | IC50 [2]
O=C(N[C@H]1CCC[C@H]2CC[C@@H](C(=O)N3CC(c4ncccn4)C3)N2C1=O)c1cc2cc(C(F)(F)P(=O)(O)O)ccc2s1 [Compound 46, (difluoro(2-(((3S,6S,9aS)-5-oxo-3-(3-(pyrimidin-2-yl)azetidine-1-carbonyl)octahydro-1H-pyrrolo[1,2-a]azepin-6-yl)carbamoyl)benzo[b]thiophen-5-yl)methyl) phosphonic acid] | < 100 nM | 3000 to 30000 nM
COc1cc(CCN(C)C(=O)[C@@H]2CC[C@@H]3CCCC[C@H](NC(=O)c4cc5cc(C(F)(F)P(=O)(O)O)ccc5s4)C(=O)N32)ccn1 [Compound 47, (difluoro(2-(((3S,6S,10aS)-3-((2-(2-methoxypyridin-4-yl)ethyl)(methyl)carbamoyl)-5-oxodecahydropyrrolo [1,2-a]azocin-6-yl)carbamoyl)benzo[b]thiophen-5-yl)methyl) phosphonic acid] | 1000 to 10000 nM | 300 to 3000 nM
O=C(N[C@H]1CCCC[C@H]2CC[C@@H](C(=O)N3CCc4c(cc[nH]c4=O)C3)N2C1=O)c1cc2cc(C(F)(F)P(=O)(O)O)ccc2s1 [Compound 48, (difluoro(2-(((3S,6S,10aS)-5-oxo-3-(5-oxo-1,2,3,4,5,6-hexahydro-2,6-naphthyridine-2-carbonyl)decahydropyrrolo [1,2-a]azocin-6-yl)carbamoyl)benzo[b]thiophen-5-yl)methyl) phosphonic acid] | 1000 to 10000 nM | 3000 to 30000 nM
O=C(N[C@H]1CCCC[C@H]2CC[C@@H](C(=O)NCc3cc[nH]c(=O)c3)N2C1=O)c1cc2cc(C(F)(F)P(=O)(O)O)ccc2s1 [Compound 49, (difluoro(2-(((3S,6S,10aS)-5-oxo-3-(((2-oxo-1,2-dihydropyridin-4-yl)methyl)carbamoyl)deca-hydropyrrolo[1,2-a]azocin-6-yl)carbamoyl)benzo[b]thiophen-5-yl)methyl) phosphonic acid] | 100 to 1000 nM | 3000 to 30000 nM
N#CCC1CN(C(=O)[C@@H]2CC[C@@H]3CCC[C@H](NC(=O)c4cc5cc(C(F)(F)P(=O)(O)O)ccc5s4)C(=O)N32)C1 [Compound 50, ((2-(((3S,6S,9aS)-3-(3-(cyanomethyl)azetidine-1-carbonyl)-5-oxooctahydro-1H-pyrrolo[1,2-a]azepin-6-yl)carbamoyl)benzo[b]thiophen-5-yl)difluoromethyl) phosphonic acid] | 100 to 1000 nM | 300 to 3000 nM
N#Cc1cccc(C2CN(C(=O)[C@@H]3CC[C@@H]4CCC[C@H](NC(=O)c5cc6cc(C(F)(F)P(=O)(O)O)ccc6s5)C(=O)N43)C2)c1 [Compound 51, ((2-(((3S,6S,9aS)-3-(3-(3-cyanophenyl)azetidine-1-carbonyl)-5-oxooctahydro-1H-pyrrolo[1,2-a]azepin-6-yl)carbamoyl)benzo[b]thiophen-5-yl)difluoromethyl) phosphonic acid] | < 100 nM | 300 to 3000 nM
N#Cc1[nH]nc2ccc(NC(=O)[C@@H]3CC[C@@H]4CCCC[C@H](NC(=O)c5cc6cc(C(F)(F)P(=O)(O)O)ccc6s5)C(=O)N43)cc12 [Compound 52, ((2-(((3S,6S,10aS)-3-((3-cyano-2H-indazol-5-yl)carbamoyl)-5-oxodecahydropyrrolo [1,2-a]azocin-6-yl)carbamoyl)benzo[b]thiophen-5-yl)difluoromethyl) phosphonic acid] | 1000 to 10000 nM | 300 to 3000 nM
O=C(N[C@H]1CCCC[C@H]2CC[C@@H](C(=O)N3CC(F)(c4ccccc4)C3)N2C1=O)c1cc2cc(C(F)(F)P(=O)(O)O)ccc2s1 [Compound 53, (difluoro(2-(((3S,6S,10aS)-3-(3-fluoro-3-phenylazetidine-1-carbonyl)-5-oxodecahydropyrrolo [1,2-a]azocin-6-yl)carbamoyl)benzo[b]thiophen-5-yl)methyl) phosphonic acid] | < 100 nM | 300 to 3000 nM
O=C(N[C@H]1CCCC[C@H]2CC[C@@H](C(=O)N3CC(F)(c4ccccc4F)C3)N2C1=O)c1cc2cc(C(F)(F)P(=O)(O)O)ccc2s1 [Compound 54, (difluoro(2-(((3S,6S,10aS)-3-(3-fluoro-3-(2-fluorophenyl)azetidine-1-carbonyl)-5-oxodecahydropyrrolo [1,2-a]azocin-6-yl)carbamoyl)benzo[b]thiophen-5-yl)methyl) phosphonic acid] | < 100 nM | 300 to 3000 nM
O=C(N[C@H]1CCCC[C@H]2CC[C@@H](C(=O)Nc3ccc4nccc(Cl)c4c3)N2C1=O)c1cc2cc(C(F)(F)P(=O)(O)O)ccc2s1 [Compound 55, ((2-(((3S,6S,10aS)-3-((4-chloroquinolin-6-yl)carbamoyl)-5-oxodecahydropyrrolo [1,2-a]azocin-6-yl)carbamoyl)benzo[b]thiophen-5-yl)difluoromethyl) phosphonic acid] | 100 to 1000 nM | 300 to 3000 nM
CC(C)(O)c1cn(C2CN(C(=O)[C@@H]3CC[C@@H]4CCCC[C@H](NC(=O)c5cc6cc(C(F)(F)P(=O)(O)O)ccc6s5)C(=O)N43)C2)nn1 [Compound 56, (difluoro(2-(((3S,6S,10aS)-3-(3-(4-(2-hydroxypropan-2-yl)-1H-1,2,3-triazol-1-yl)azetidine-1-carbonyl)-5-oxodecahydropyrrolo [1,2-a]azocin-6-yl)carbamoyl)benzo[b]thiophen-5-yl)methyl) phosphonic acid] | 100 to 1000 nM | 3000 to 30000 nM
O=C(N[C@H]1CCCC[C@H]2CC[C@@H](C(=O)Nc3ccc4c(c3)CCS4(=O)=O)N2C1=O)c1cc2cc(C(F)(F)P(=O)(O)O)ccc2s1 [Compound 57, ((2-(((3S,6S,10aS)-3-((1,1-dioxido-2,3-dihydrobenzo[b]thiophen-5-yl)carbamoyl)-5-oxodecahydropyrrolo [1,2-a]azocin-6-yl)carbamoyl)benzo[b]thiophen-5-yl)difluoromethyl) phosphonic acid] | 100 to 1000 nM | 300 to 3000 nM
O=C(N[C@H]1CCCC[C@H]2CC[C@@H](C(=O)Nc3ccc4c(c3)CCCS4(=O)=O)N2C1=O)c1cc2cc(C(F)(F)P(=O)(O)O)ccc2s1 [Compound 58, ((2-(((3S,6S,10aS)-3-((1,1-dioxidothio-chroman-6-yl)carbamoyl)-5-oxodecahydropyrrolo [1,2-a]azocin-6-yl)carbamoyl)benzo[b]thiophen-5-yl)difluoro-methyl)phosphonic acid] | 100 to 1000 nM | 300 to 3000 nM
Cc1[nH]nc2ccc(NC(=O)[C@@H]3CC[C@@H]4CCCC[C@H](NC(=O)c5cc6cc(C(F)(F)P(=O)(O)O)ccc6s5)C(=O)N43)cc12 [Compound 59, (difluoro(2-(((3S,6S,10aS)-3-((3-methyl-2H-indazol-5-yl)carbamoyl)-5-oxodecahydro-pyrrolo[1,2-a]azocin-6-yl)carbamoyl)benzo[b]thiophen-5-yl)methyl) phosphonic acid] | 100 to 1000 nM | 300 to 3000 nM
O=C(N[C@H]1CCC[C@H]2CCC[C@@H](C(=O)N3CC(n4ccnc4)C3)N2C1=O)c1cc2cc(C(F)(F)P(=O)(O)O)ccc2s1 [Compound 60, ((2-(((4S,7S,10aS)-4-(3-(1H-imidazol-1-yl)azetidine-1-carbonyl)-6-oxodecahydropyrido [1,2-a]azepin-7-yl)carbamoyl)benzo[b]thiophen-5-yl)difluoromethyl) phosphonic acid] | < 100 nM | 3000 to 30000 nM
N=S1(=O)CCC(C2CN(C(=O)[C@@H]3CC[C@@H]4CCCC[C@H](NC(=O)c5cc6cc(C(F)(F)P(=O)(O)O)ccc6s5)C(=O)N43)C2)CC1 (stereo partly drawn) [Compound 61, (difluoro(2-(((3S,6S,10aS)-3-(3-(1-imino-1-oxidohexahydro-1l6-thiopyran-4-yl)azetidine-1-carbonyl)-5-oxodecahydropyrrolo [1,2-a]azocin-6-yl)carbamoyl)benzo[b]thiophen-5-yl)methyl) phosphonic acid] | 100 to 1000 nM | 300 to 3000 nM
O=C(N[C@H]1CCCC[C@H]2CCC[C@@H](C(=O)N3CC(n4ccnc4)C3)N2C1=O)c1cc2cc(C(F)(F)P(=O)(O)O)ccc2s1 [Compound 62, ((2-(((4S,7S,11aS)-4-(3-(1H-imidazol-1-yl)azetidine-1-carbonyl)-6-oxodecahydro-2H-pyrido[1,2-a]azocin-7-yl)carbamoyl)benzo[b]thiophen-5-yl)difluoromethyl) phosphonic acid] | > 10000 nM | > 30000 nM
C#Cc1ncoc1C1CN(C(=O)[C@@H]2CC[C@@H]3CCCC[C@H](NC(=O)c4cc5cc(C(F)(F)P(=O)(O)O)ccc5s4)C(=O)N32)C1 [Compound 64, ((2-(((3S,6S,10aS)-3-(3-(4-ethynyloxazol-5-yl)azetidine-1-carbonyl)-5-oxodecahydropyrrolo [1,2-a]azocin-6-yl)carbamoyl)benzo[b]thiophen-5-yl)difluoromethyl) phosphonic acid] | < 100 nM | 300 to 3000 nM
